# According to publication PMC6001364 (European journal of medicinal chemistry, 2018):
# Read-outs that look alike come from different tables or passages of the source.
# Tests used:
# WT HIV-1 strain (IIIB) [1] = type: cell-based; details: ratio of CC50/EC50, MT-4 cells
# [2] = test system: K103 N + Y181C double mutant HIV-1 strain (RES056); assay: Anti-HIV-1 activity against double mutant RES056 in MT-4 cells, MTT method; type: cell-based; details: for SI RES056: ratio of CC50/EC50, MT-4 cells, values given with symbol X1; for EC50 RES056: MT-4 cells, MTT method
# wild-type HIV-1 (NL4-3) = assay: Inhibition of wild-type HIV-1; type: cell-based; details: ratio of CC50/EC50, TZM-bl cells
# [3] = test system: HIV-1 E138K mutant strain; assay: microbe, parasite or virus in culture; type: cell-based
# [4] = test system: HIV-1 Y181C mutant strain; type: cell-based
# [5] = test system: HIV-1 F227L + V106A mutant strain; assay: microbe, parasite or virus in culture; type: cell-based
# [6] = test system: HIV-1 K103 N mutant strain; type: cell-based; details: ratio of CC50/EC50, MT-4 cells
# [7] = Cytotoxicity in mock-infected MT-4 cells, MTT method; type: cell-based; details: human
# [8] = test system: HIV-1 Y188L mutant strain; assay: microbe, parasite or virus in culture; type: cell-based; details: for EC50: Human immunodeficiency virus 1, MT4, read-out: EC50 Y188L
# [9] = test system: HIV-1 L100I mutant strain; assay: microbe, parasite or virus in culture; type: cell-based
# MT-4 cells = details: cited from earlier work
# [10] = test system: K103 N + Y181C double mutant HIV-1 strain (RES056); details: cited from earlier work
# WT HIV-1 strain (IIIB) [11] = details: cited from earlier work
# HIV-1 RT = HIV-1 RT (Human immunodeficiency virus type 1 group M subtype B, UniProt P03366); details: read-out: IC50 against HIV-1 RT; cited from earlier work
structure (smiles),measurement,setting,value
"Cc1cc(C)c(Oc2cc(Nc3ccc(C#N)cc3)ncc2C(=O)NCc2cn(Cc3ccccc3C)nn2)c(C)c1 [3a1, N-((1-(2-methylbenzyl)-1H-1,2,3-triazol-4-yl)methyl)-6-((4-cyanophenyl)amino)-4(mesityloxy)nicotinamide]",SI IIIB,WT HIV-1 strain (IIIB) [1],≥2132
"Cc1cc(C)c(Oc2cc(Nc3ccc(C#N)cc3)ncc2C(=O)NCc2cn(Cc3ccccc3F)nn2)c(C)c1 [3a2, N-((1-(2-fluorobenzyl)-1H-1,2,3-triazol-4-yl)methyl)-6-((4-cyanophenyl)amino)-4-(mesityloxy)nicotinamide]",SI IIIB,WT HIV-1 strain (IIIB) [1],>2348
same,SI RES056,[2],X1
"Cc1cc(C)c(Oc2cc(Nc3ccc(C#N)cc3)ncc2C(=O)NCc2cn(Cc3ccccc3Cl)nn2)c(C)c1 [3a3, N-((1-(2-chlorobenzyl)-1H-1,2,3-triazol-4-yl)methyl)-6-((4-cyanophenyl)amino)-4-(mesityloxy)nicotinamide]",SI IIIB,WT HIV-1 strain (IIIB) [1],≥1807
"Cc1cc(C)c(Oc2cc(Nc3ccc(C#N)cc3)ncc2C(=O)NCc2cn(Cc3ccccc3C#N)nn2)c(C)c1 [3a4, N-((1-(2-cyanobenzyl)-1H-1,2,3-triazol-4-yl)methyl)-6-((4-cyanophenyl)amino)-4-(mesityloxy)nicotinamide]",SI IIIB,WT HIV-1 strain (IIIB) [1],>5589
same,SI RES056,[2],X1
"Cc1cc(C)c(Oc2cc(Nc3ccc(C#N)cc3)ncc2C(=O)NCc2cn(Cc3ccccc3[N+](=O)[O-])nn2)c(C)c1 [3a5, N-((1-(2-nitrobenzyl)-1H-1,2,3-triazol-4-yl)methyl)-6-((4-cyanophenyl)amino)-4-(mesityloxy)nicotinamide]",SI IIIB,WT HIV-1 strain (IIIB) [1],>3724
same,SI RES056,[2],X1
"Cc1cc(C)c(Oc2cc(Nc3ccc(C#N)cc3)ncc2C(=O)NCc2cn(Cc3cccc(F)c3)nn2)c(C)c1 [3a7, N-((1-(3-fluorobenzyl)-1H-1,2,3-triazol-4-yl)methyl)-6-((4-cyanophenyl)amino)-4-(mesityloxy)nicotinamide]",SI IIIB,WT HIV-1 strain (IIIB) [1],≥2608
"Cc1cc(C)c(Oc2cc(Nc3ccc(C#N)cc3)ncc2C(=O)NCc2cn(Cc3cccc(C#N)c3)nn2)c(C)c1 [3a9, N-((1-(3-cyanobenzyl)-1H-1,2,3-triazol-4-yl)methyl)-6-((4-cyanophenyl)amino)-4-(mesityloxy)nicotinamide]",SI IIIB,WT HIV-1 strain (IIIB) [1],≥5213
"Cc1cc(C)c(Oc2cc(Nc3ccc(C#N)cc3)ncc2C(=O)NCc2cn(Cc3cccc([N+](=O)[O-])c3)nn2)c(C)c1 [3a10, N-((1-(3-nitrobenzyl)-1H-1,2,3-triazol-4-yl)methyl)-6-((4-cyanophenyl)amino)-4-(mesityloxy)nicotinamide]",SI IIIB,WT HIV-1 strain (IIIB) [1],≥4220
"Cc1cc(C)c(Oc2cc(Nc3ccc(C#N)cc3)ncc2C(=O)NCc2cn(Cc3ccc(F)cc3)nn2)c(C)c1 [3a12, N-((1-(4-fluorobenzyl)-1H-1,2,3-triazol-4-yl)methyl)-6-((4-cyanophenyl)amino)-4-(mesityloxy)nicotinamide]",SI IIIB,WT HIV-1 strain (IIIB) [1],≥2056
"Cc1cc(C)c(Oc2cc(Nc3ccc(C#N)cc3)ncc2C(=O)NCc2cn(Cc3ccc(Cl)cc3)nn2)c(C)c1 [3a13, N-((1-(4-chlorobenzyl)-1H-1,2,3-triazol-4-yl)methyl)-6-((4-cyanophenyl)amino)-4-(mesityloxy)nicotinamide]",SI IIIB,WT HIV-1 strain (IIIB) [1],≥620
"Cc1cc(C)c(Oc2cc(Nc3ccc(C#N)cc3)ncc2C(=O)NCc2cn(Cc3ccc([N+](=O)[O-])cc3)nn2)c(C)c1 [3a14, N-((1-(4-nitrobenzyl)-1H-1,2,3-triazol-4-yl)methyl)-6-((4-cyanophenyl)amino)-4-(mesityloxy)nicotinamide]",SI IIIB,WT HIV-1 strain (IIIB) [1],≥3498
"Cc1cc(C)c(Oc2cc(Nc3ccc(C#N)cc3)ncc2C(=O)NCc2cn(CCCO)nn2)c(C)c1 [3b1, 6-((4-cyanophenyl)amino)-N-((1-(3-hydroxypropyl)-1H-1,2,3-triazol-4-yl)methyl)-4-(mesityloxy)nicotinamide]",EC50 RES056,[2],low micromolar concentration
"Cc1cc(C)c(Oc2cc(Nc3ccc(C#N)cc3)ncc2C(=O)NCc2cn(CCC#N)nn2)c(C)c1 [3b2, N-((1-(2-cyanoethyl)-1H-1,2,3-triazol-4-yl)methyl)-6-((4-cyanophenyl)amino)-4-(mesityloxy)nicotinamide]",SI IIIB,WT HIV-1 strain (IIIB) [1],2044
same,EC50 RES056,[2],low micromolar concentration
"CC(=O)Cn1cc(CNC(=O)c2cnc(Nc3ccc(C#N)cc3)cc2Oc2c(C)cc(C)cc2C)nn1 [3b3, 6-((4-cyanophenyl)amino)-4-(mesityloxy)-N-((1-(2-oxopropyl)-1H-1,2,3-triazol-4-yl)methyl)nicotinamide]",EC50 RES056,[2],low micromolar concentration
"Cc1cc(C)c(Oc2cc(Nc3ccc(C#N)cc3)ncc2C(=O)NCc2cn(CC(N)=O)nn2)c(C)c1 [3b7, N-((1-(2-amino-2-oxoethyl)-1H-1,2,3-triazol-4-yl)methyl)-6-((4-cyanophenyl)amino)-4-(mesityloxy)nicotinamide]",EC50 RES056,[2],low micromolar concentration
"Cc1cc(C)c(Oc2cc(Nc3ccc(C#N)cc3)ncc2C(=O)NCc2cn(CC(=O)N3CCCC3)nn2)c(C)c1 [3b8, 6-((4-cyanophenyl)amino)-4-(mesityloxy)-N-((1-(2-oxo-2-(pyrrolidin-1-yl)ethyl)-1H-1,2,3-triazol-4-yl)methyl)nicotinamide]",EC50 RES056,[2],low micromolar concentration
"Cc1cc(C)c(Oc2cc(Nc3ccc(C#N)cc3)ncc2C(=O)NCc2cn(CC(=O)N3CCOCC3)nn2)c(C)c1 [3b9, 6-((4-cyanophenyl)amino)-4-(mesityloxy)-N-((1-(2-morpholino-2-oxoethyl)-1H-1,2,3-triazol-4-yl)methyl)nicotinamide]",SI,wild-type HIV-1 (NL4-3),>10.8
same,SI IIIB,WT HIV-1 strain (IIIB) [1],9279
same,EC50 RES056,[2],low micromolar concentration
"Cc1cn([C@H]2C[C@H](N=[N+]=[N-])[C@@H](CO)O2)c(=O)[nH]c1=O [AZT, Zidovudine]",EC50,"[3]; Human immunodeficiency virus 1, MT4, read-out: EC50 E138K",0.013 ± 0.004 µM
same,Resistance Folds Y181C,[4]; ratio of EC50 against mutant strain/EC50 against WT strain,1.0
"CC(C)Nc1cccnc1N1CCN(C(=O)c2cc3cc(NS(C)(=O)=O)ccc3[nH]2)CC1 [DLV, Delavirdine]",SI F227L + V106A,"[5]; ratio of CC50/EC50, MT-4 cells",16
same,SI K103 N,[6],12
same,SI E138K,"[3]; ratio of CC50/EC50, MT-4 cells",715
same,CC50 at 5 days,[7],36.8 µM
same,SI Y181C,"[4]; ratio of CC50/EC50, MT-4 cells",15
same,SI Y188L,"[8]; ratio of CC50/EC50, MT-4 cells",44
same,SI L100I,"[9]; ratio of CC50/EC50, MT-4 cells",14
"O=C1Nc2ccc(Cl)cc2[C@@](C#CC2CC2)(C(F)(F)F)O1 [EFV, Efavirenz]",EC50,"[5]; Human immunodeficiency virus 1, MT4, read-out: EC50 F227L + V106A",0.21 ± 0.008 µM
same,EC50,[8],0.34 ± 0.01 µM
"Cc1cc(C#N)cc(C)c1Oc1nc(Nc2ccc(C#N)cc2)nc(N)c1Br [ETR, Etravirine]",CC50 at 5 days,[7],2.46 µM
"C#CCNC(=O)c1cnc(Nc2ccc(C#N)cc2)cc1Oc1c(C)cc(C)cc1C [L-6b5, 6-((4-cyanophenyl)amino)-4-(mesityloxy)-N-(prop-2-yn-1-yl)nicotinamide]",CC50,MT-4 cells,73 ± 26.9 µM
same,SI RES056,[10]; ratio of CC50/EC50,12
same,EC50,"[10]; read-out: EC50 RES056, MT-4 cells",6.1 ± 0.54 µM
same,SI IIIB,WT HIV-1 strain (IIIB) [11]; ratio of CC50/EC50,2471
same,EC50,"WT HIV-1 strain (IIIB) [11]; read-out: EC50 IIIB, MT-4 cells",0.029 ± 0.005 µM
"Cc1ccnc2c1NC(=O)c1cccnc1N2C1CC1 [NVP, Nevirapine]",EC50,[8],9.61 ± 1.86 µM
same,EC50,"[9]; Human immunodeficiency virus 1, MT4, read-out: EC50 L100I",0.83 ± 0.32 µM
CCOc1ccnc(CCNC(=S)Nc2ccc(Cl)cn2)c1F [PETT-2],IC50,HIV-1 RT,0.005 µM
